# PubChem BioAssay AID2060363 (Molecular Pharmacology Branch, DTP, NCI, 2025)
# Where “and” joins values, the source holds several entries; their conditions need not be identical. Equal values may be shown once.
# System: 156681-154-R-J1-PDC tumor spheroids, viability % test/control
# Experiment: Anticancer human tumor 156681-154-R-J1-PDC patient-derived melanoma cell line growth inhibition [TAK]
# Details: spheroids with HUVEC and MSC; for viability, T/C: stronger effect = lower value
# Source text: Combinatorial screen of targeted agents with TAK-243 and ipatasertib in multi-cell type tumor spheroids
# A high-throughput screen of multi-cell type tumor spheroids was designed to identify active combinations of targeted small molecules and TAK-243 or ipatasertib. Complex spheroids include a stromal component modeled by human endothelial cells (HUVEC) and fibroblasts modeled by human mesenchymal stem cells (MSCs). The concentration ranges selected for each drug and investigational agent were based upon clinically achievable concentrations if the clinical Cmax of the agent was known.
# Compounds. The drugs and investigational agents: TAK-243 (785004), ipatasertib (767898), everolimus (733504), selumetinib (741078), bortezomib (756655), trametinib (758246), ixazomib (758254), vemurafenib (761431), dabrafenib (764134), sapanisertib (764658), alpelisib (765974), and copanlisib (816437), were obtained from the National Cancer Institute (NCI) Developmental Therapeutics Program Chemical Repository. The FDA-approved anticancer drug set is available from the NCI Developmental Therapeutics Program. […] The stock solutions were prepared in dimethyl sulfoxide (DMSO, Sigma-Aldrich, St. Louis, MO, cat. D2650) at 800-fold the tested concentration and stored at -70 degrees C prior to their use. All drugs and investigational agents were tested over a range starting from a high concentration at or near the clinical Cmax and decreasing in half-log increments. If the clinical Cmax for an agent had not been determined, the highest concentration tested was 10 microM.
# NCI60 Cell Culture. NCI60 cell lines were obtained from the NCI Developmental Therapeutics Program Tumor Repository. For each lot of cells, the Repository performed Applied Biosystems AmpFLSTR Identifiler testing with PCR amplification to confirm consistency with the published Identifier STR profile for each cell line. Cells were kept in continuous culture for no more than 20 passages. The optimal seeding densities for each of the cell lines at each time point assessed were determined prior to performing the concentration response studies. Briefly, the NCI60 human tumor lines were grown as monolayers in RPMI 1640 medium supplemented with 10% FBS and 2 mmol/L L-glutamine.
# An additional 2 lines were from the NCI60 cell line panel including melanomas, MALME-3M and SK-MEL-2. Pooled donor human umbilical vein endothelial cells (HUVEC, Lonza, cat. CC-2519) and human mesenchymal stem cells (hMSC, Lonza, cat. PT-2501) were purchased from Lonza (Walkersville, MD).
# PDMR cell lines were grown in complete medium (DC medium): Dulbecco's modified Eagle's medium (DMEM)/F12 supplemented with 5% fetal bovine serum (FBS), 2 mM L-glutamine, 100 U/mL penicillin and 100 µg/ml streptomycin, 0.4 µg/ml hydrocortisone, 10 ng/ml epidermal growth factor (EGF) recombinant human protein, 24 µg/mL adenine, and 0.1 mg/mL primocin. During culture from frozen stock vials, PDMR cells were cultured in the same medium containing 10 µM Y-27632 (see Table 3). The PDCs were cultured in complete DMEM/F12 media without 10 microM Y-27632 dihydrochloride for at least two passages prior to the screen. The pooled donor HUVEC and hMSC were cultured in endothelial cell growth medium 2 (PromoCell, Heidelberg, Germany, cat. C-22011) and mesenchymal stem cell growth medium 2 (PromoCell, cat. C-28009), respectively. For all experiments, HUVEC and hMSC were used at passages </=5.
# For the pre-screen, cell seeding densities were determined from a titration spanning the range from 5,000 to 313 cells per well. The mct-spheroids including 60% malignant cells, 25% HUVEC and 15% MSC dispensed as a mixture into U-bottom Ultra-Low Attachment 384-well plates (Corning, NY)
# High-throughput Drug Combination Screening.
# Prior to their inoculation into 384-well plates, malignant cells, HUVEC, and hMSC were removed from T flasks using TrypLE express (Thermo Fisher Scientific, cat. 12605036) and harvested by centrifugation for 5 min at 233 x g. […]
# [1] = curve of first compound, second compound 0.3 µM
# [2] = curve of first compound, second compound 0.949 µM
# [3] = curve of first compound, second compound 3 µM
# [4] = curve of first compound, second compound 9.49 µM
# [5] = curve of first compound, second compound 30 µM
# 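Note: spheroids exposed to compounds for 7 days before the endpoint.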
smiles,measurement,setting,value
CC(=O)Nc1cccc(-n2c(=O)n(C3CC3)c(=O)c3c(Nc4ccc(I)cc4F)n(C)c(=O)c(C)c32)c1 + CC(C)NCC(C(=O)N1CCN(c2ncnc3c2C(C)CC3O)CC1)c1ccc(Cl)cc1,IC50,[1],3.28 nM
same,IC50,[2],3.04 nM
same,IC50,[3],1.39 nM
same,IC50,[4],< 0.0949 nM
same,IC50,[5],< 0.0949 nM
same,"viability, T/C","second compound 0.3 µM, first compound 94.9 pM",92%
same,"viability, T/C","second compound 0.3 µM, first compound 0.0003 µM",105%
same,"viability, T/C","second compound 0.3 µM, first compound 0.000949 µM",95.2%
same,"viability, T/C","second compound 0.3 µM, first compound 0.003 µM",53.3%
same,"viability, T/C","second compound 0.3 µM, first compound 0.00949 µM",11%
same,"viability, T/C","second compound 0.3 µM, first compound 0.03 µM",7.15%
same,"viability, T/C","second compound 0.949 µM, first compound 94.9 pM",88.9%
same,"viability, T/C","second compound 0.949 µM, first compound 0.0003 µM",89.2%
same,"viability, T/C","second compound 0.949 µM, first compound 0.000949 µM",84.2%
same,"viability, T/C","second compound 0.949 µM, first compound 0.003 µM",50.8%
same,"viability, T/C","second compound 0.949 µM, first compound 0.00949 µM",8.92%
same,"viability, T/C","second compound 0.949 µM, first compound 0.03 µM",6.03%
same,"viability, T/C","second compound 3 µM, first compound 94.9 pM",72.3%
same,"viability, T/C","second compound 3 µM, first compound 0.0003 µM",69.3%
same,"viability, T/C","second compound 3 µM, first compound 0.000949 µM",63.6%
same,"viability, T/C","second compound 3 µM, first compound 0.003 µM",22.9%
same,"viability, T/C","second compound 3 µM, first compound 0.00949 µM",7.24%
same,"viability, T/C","second compound 3 µM, first compound 0.03 µM",2.71%
same,"viability, T/C","second compound 9.49 µM, first compound 94.9 pM",43.4%
same,"viability, T/C","second compound 9.49 µM, first compound 0.0003 µM",43.6%
same,"viability, T/C","second compound 9.49 µM, first compound 0.000949 µM",31.1%
same,"viability, T/C","second compound 9.49 µM, first compound 0.003 µM",13%
same,"viability, T/C","second compound 9.49 µM, first compound 0.00949 µM",3.14%
same,"viability, T/C","second compound 9.49 µM, first compound 0.03 µM",0.73%
same,"viability, T/C","second compound 30 µM, first compound 94.9 pM",17.9%
same,"viability, T/C","second compound 30 µM, first compound 0.0003 µM",18.9%
same,"viability, T/C","second compound 30 µM, first compound 0.000949 µM",11.8%
same,"viability, T/C","second compound 30 µM, first compound 0.003 µM",4.9%
same,"viability, T/C","second compound 30 µM, first compound 0.00949 µM",1.63%
same,"viability, T/C","second compound 30 µM, first compound 0.03 µM",0.28%
CC(C)n1nc(-c2ccc3oc(N)nc3c2)c2c(N)ncnc21 + CC(C)NCC(C(=O)N1CCN(c2ncnc3c2C(C)CC3O)CC1)c1ccc(Cl)cc1,IC50,[1],26 nM
same,IC50,[2],12.5 nM
same,IC50,[3],2.4 nM
same,IC50,[4],< 0.316 nM
same,IC50,[5],< 0.316 nM
same,"viability, T/C","second compound 0.3 µM, first compound 0.000316 µM",94.5%
same,"viability, T/C","second compound 0.3 µM, first compound 0.001 µM",91.8%
same,"viability, T/C","second compound 0.3 µM, first compound 0.00316 µM",84.1%
same,"viability, T/C","second compound 0.3 µM, first compound 0.01 µM",69.4%
same,"viability, T/C","second compound 0.3 µM, first compound 0.0316 µM",45.9%
same,"viability, T/C","second compound 0.3 µM, first compound 0.1 µM",25.2%
same,"viability, T/C","second compound 0.949 µM, first compound 0.000316 µM",83.4%
same,"viability, T/C","second compound 0.949 µM, first compound 0.001 µM",85.4%
same,"viability, T/C","second compound 0.949 µM, first compound 0.00316 µM",63.8%
same,"viability, T/C","second compound 0.949 µM, first compound 0.01 µM",58.6%
same,"viability, T/C","second compound 0.949 µM, first compound 0.0316 µM",32.1%
same,"viability, T/C","second compound 0.949 µM, first compound 0.1 µM",20%
same,"viability, T/C","second compound 3 µM, first compound 0.000316 µM",65.4%
same,"viability, T/C","second compound 3 µM, first compound 0.001 µM",57.3%
same,"viability, T/C","second compound 3 µM, first compound 0.00316 µM",46.2%
same,"viability, T/C","second compound 3 µM, first compound 0.01 µM",38.3%
same,"viability, T/C","second compound 3 µM, first compound 0.0316 µM",19.7%
same,"viability, T/C","second compound 3 µM, first compound 0.1 µM",11%
same,"viability, T/C","second compound 9.49 µM, first compound 0.000316 µM",39.9%
same,"viability, T/C","second compound 9.49 µM, first compound 0.001 µM",33.4%
same,"viability, T/C","second compound 9.49 µM, first compound 0.00316 µM",23.3%
same,"viability, T/C","second compound 9.49 µM, first compound 0.01 µM",16.3%
same,"viability, T/C","second compound 9.49 µM, first compound 0.0316 µM",11%
same,"viability, T/C","second compound 9.49 µM, first compound 0.1 µM",4.26%
same,"viability, T/C","second compound 30 µM, first compound 0.000316 µM",15.5%
same,"viability, T/C","second compound 30 µM, first compound 0.001 µM",14.4%
same,"viability, T/C","second compound 30 µM, first compound 0.00316 µM",12.3%
same,"viability, T/C","second compound 30 µM, first compound 0.01 µM",7.31%
same,"viability, T/C","second compound 30 µM, first compound 0.0316 µM",3.39%
same,"viability, T/C","second compound 30 µM, first compound 0.1 µM",1.21%
CC(C)n1nc(-c2ccc3oc(N)nc3c2)c2c(N)ncnc21,"viability, T/C",compound 0.000316 µM,97.2% and 94.8%
same,"viability, T/C",compound 0.001 µM,95.3% and 91.7%
same,"viability, T/C",compound 0.00316 µM,81.4% and 96.3%
same,"viability, T/C",compound 0.01 µM,80.2% and 86.3%
same,"viability, T/C",compound 0.0316 µM,48% and 56.1%
same,"viability, T/C",compound 0.1 µM,33.3% and 34.1%
same,IC50,curve of compound,33.9 nM and 43.3 nM
